Test results published in DBAASP.
Values after ≈ are worked out from the molar mass of the structure shown. Values belong to the compound of their own block, whether it stands above or below them.

Legend:
Test in all cases: ≥ marks a high value that may be exact or a test limit, other limits are often not marked, values filed in µg/mL are converted to µM
Bacillus cereus C737 = test system: Bacillus cereus C737
Escherichia coli UB1005 = test system: Escherichia coli UB1005
[1] = test system: Pseudomonas aeruginosa PAO1
[2] = test system: Yersinia enterocolitica BCRC 13999
[3] = test system: Vibrio parahaemolyticus BCRC 10806
[4] = test system: Enterobacter cloacae BCRC 10401
Vibrio alginolyticus = test system: Vibrio alginolyticus
Streptococcus iniae = test system: Streptococcus iniae
[5] = test system: Streptococcus equinus BCRC 14729
[6] = test system: Vibrio anguillarum serotype O1
[7] = test system: Klebsiella oxytoca BCRC 13985
Vibrio parahaemolyticus = test system: Vibrio parahaemolyticus
[8] = test system: Staphylococcus aureus BCRC 10781
[9] = test system: Vibrio alginolyticus BCRC 12829
[10] = test system: Staphylococcus aureus BCRC 10780
[11] = test system: Klebsiella aerogenes BCRC 10370
Lactococcus garvieae = test system: Lactococcus garvieae
Vibrio harveyi = test system: Vibrio harveyi
Escherichia coli = test system: Escherichia coli
[12] = test system: Escherichia coli BCRC 10675
[13] = test system: Listeria monocytogenes BCRC 14845
[14] = test system: Staphylococcus xylosus BCRC 12930
[15] = test system: Pseudomonas aeruginosa BCRC 10944
[16] = test system: Streptococcus sanguinis NY101
[17] = test system: Streptococcus mitis ATCC 903
[18] = test system: Streptococcus mutans UA159
Staphylococcus aureus = test system: Staphylococcus aureus
[19] = test system: Streptococcus gordonii Challis DL1
[20] = test system: Pseudomonas aeruginosa PAK
[21] = test system: Veillonella atypica PK1910
[22] = test system: Lacticaseibacillus casei ATCC 4646
Pasteurella multocida = test system: Pasteurella multocida
Micrococcus luteus = test system: Micrococcus luteus
Bacillus cereus = test system: Bacillus cereus
[23] = test system: Staphylococcus epidermidis
Listeria innocua = test system: Listeria innocua
Streptococcus uberis = test system: Streptococcus uberis
Leuconostoc lactis = test system: Leuconostoc lactis
Candida glabrata = test system: Candida glabrata
[24] = test system: Candida albicans IHEM 8060

MIC (Bacillus cereus C737): ≥ 79.2 µM | MIC (Escherichia coli UB1005): ≥ 79.2 µM | MIC [1]: > 79.2 µM
SMILES: CC[C@H](C)[C@H](NC(=O)[C@H](C)NC(=O)CNC(=O)[C@@H](NC(=O)[C@@H](NC(=O)[C@H](CCCCN)NC(=O)[C@H](CCCCN)NC(=O)[C@@H](NC(=O)[C@@H](NC(=O)[C@H](CC(=O)O)NC(=O)[C@H](Cc1ccccc1)NC(=O)[C@H](CC(C)C)NC(=O)CN)[C@@H](C)CC)C(C)C)C(C)C)C(C)C)C(=O)NCC(=O)N[C@@H](CO)C(=O)N[C@@H](CC(C)C)C(=O)O [GLFDIVKKVVGAIGSL]

MIC [2]: 28.4 µM (≈ 64 µg/mL) | MIC [4]: 3.55 µM (≈ 8 µg/mL) | MIC (Vibrio alginolyticus): 3.55 µM (≈ 8 µg/mL) | MIC (Streptococcus iniae): ≥ 56.7 µM | MIC [5]: ≥ 56.7 µM | MIC [6]: 3.55 µM (≈ 8 µg/mL) | MIC [7]: 14.2 µM (≈ 32 µg/mL) | MIC [8]: 7.09 µM (≈ 16 µg/mL) | MIC [9]: 28.4 µM (≈ 64 µg/mL) | MIC [10]: 7.09 µM (≈ 16 µg/mL) | MIC [11]: 3.55 µM (≈ 8 µg/mL) | MIC (Lactococcus garvieae): ≥ 56.7 µM | MIC (Vibrio harveyi): 3.55 µM (≈ 8 µg/mL) | MIC (Escherichia coli): 14.2 µM (≈ 32 µg/mL) | MIC [12]: 7.09 µM (≈ 16 µg/mL) | MIC [13]: 3.55 µM (≈ 8 µg/mL) | MIC [14]: 3.55 µM (≈ 8 µg/mL) | MIC [15]: 7.09 µM (≈ 16 µg/mL)
SMILES: CC[C@H](C)[C@H](NC(=O)[C@H](Cc1ccccc1)NC(=O)[C@H](CCCCN)NC(=O)[C@H](CCCCN)NC(=O)[C@H](C)NC(=O)[C@@H](NC(=O)[C@@H](NC(=O)[C@H](C)NC(=O)[C@H](Cc1ccccc1)NC(=O)[C@H](CCCCN)NC(=O)[C@H](CCCCN)NC(=O)[C@H](C)NC(=O)[C@H](C)NC(=O)[C@H](CC(N)=O)NC(=O)[C@H](C)NC(=O)CN)[C@@H](C)O)[C@@H](C)CC)C(=O)N[C@@H](CC(N)=O)C(=O)N[C@@H](Cc1ccc(O)cc1)C(=O)N[C@@H](CC(C)C)C(=O)N[C@@H](Cc1c[nH]c2ccccc12)C(=O)O [GANAAKKFATIAKKFINYLW]
MIC [3]: 28.4 µM (≈ 64 µg/mL) | MIC (Vibrio parahaemolyticus): 1.77 µM (≈ 4 µg/mL)

MIC [16]: 8.39 µM (≈ 16 µg/mL) | MIC [17]: 16.8 µM (≈ 32 µg/mL) | MIC [18]: 4.2 µM (≈ 8 µg/mL) | MIC (Staphylococcus aureus): 8.39 µM (≈ 16 µg/mL) | MIC [19]: 8.39 µM (≈ 16 µg/mL) | MIC [20]: 4.2 µM (≈ 8 µg/mL) | MIC [21]: 2.1 µM (≈ 4 µg/mL) | MIC [22]: 8.39 µM (≈ 16 µg/mL)
SMILES: CC(C)C[C@H](NC(=O)[C@H](CC(C)C)NC(=O)[C@H](Cc1cnc[nH]1)NC(=O)[C@H](Cc1cnc[nH]1)NC(=O)[C@H](CC(C)C)NC(=O)[C@H](CCCCN)NC(=O)[C@H](CCCCN)NC(=O)[C@H](CC(C)C)NC(=O)[C@H](CC(C)C)NC(=O)[C@H](CCCN=C(N)N)NC(=O)[C@H](CCCN=C(N)N)NC(=O)[C@H](Cc1c[nH]c2ccccc12)NC(=O)[C@@H](N)CCCN=C(N)N)C(=O)N[C@@H](Cc1cnc[nH]1)C(N)=O [RWRRLLKKLHHLLH]

MIC (Pasteurella multocida): ≥ 61.9 µM | MIC (Bacillus cereus C737): ≥ 79.2 µM | MIC (Micrococcus luteus): 15.5 µM (≈ 25 µg/mL) | MIC (Staphylococcus aureus): 15.5 µM (≈ 25 µg/mL) | MIC (Bacillus cereus): ≥ 61.9 µM | MIC [23]: 15.5 µM (≈ 25 µg/mL) | MIC (Escherichia coli UB1005): ≥ 39.6 µM | MIC (Listeria innocua): 7.43 µM (≈ 12 µg/mL) | MIC (Streptococcus uberis): ≥ 61.9 µM | MIC (Escherichia coli): > 61.9 µM | MIC [1]: > 79.2 µM | MIC (Leuconostoc lactis): 7.43 µM (≈ 12 µg/mL)
SMILES: CC[C@H](C)[C@H](NC(=O)[C@H](CC(=O)O)NC(=O)[C@H](Cc1ccccc1)NC(=O)[C@H](CC(C)C)NC(=O)CN)C(=O)N[C@H](C(=O)N[C@@H](CCCCN)C(=O)N[C@@H](CCCCN)C(=O)N[C@H](C(=O)N[C@H](C(=O)NCC(=O)N[C@@H](C)C(=O)N[C@@H](CC(C)C)C(=O)NCC(=O)N[C@@H](CO)C(=O)N[C@@H](CC(C)C)C(N)=O)C(C)C)C(C)C)C(C)C [GLFDIVKKVVGALGSL]

MIC (Candida glabrata): 17.6 µM (≈ 63.9 µg/mL) | MIC [24]: 17.6 µM (≈ 63.9 µg/mL)
SMILES: CC[C@H](C)[C@@H]1NC(=O)[C@@H](N)CSSC[C@@H]2NC(=O)[C@@H]3CSSC[C@@H](C(=O)N[C@@H](CCCN=C(N)N)C(=O)O)NC(=O)[C@H](Cc4ccc(O)cc4)NC(=O)CNC(=O)[C@H](C)NC(=O)[C@H](C(C)C)NC(=O)[C@H](Cc4c[nH]c5ccccc45)NC(=O)CNC(=O)[C@@H]4CCCN4C(=O)[C@H](CCC(=O)O)NC(=O)[C@H](CCCCN)NC(=O)[C@H](Cc4cnc[nH]4)NC(=O)[C@H](CSSC[C@H](NC(=O)CNC(=O)[C@H](CC(N)=O)NC(=O)[C@H](CCCN=C(N)N)NC(=O)[C@H](CC(N)=O)NC(=O)[C@H](C)NC1=O)C(=O)N[C@@H](CCC(N)=O)C(=O)N1CCC[C@H]1C(=O)N[C@@H](CC(=O)O)C(=O)NCC(=O)N[C@@H](CO)C(=O)N[C@@H](CCC(N)=O)C(=O)NCC(=O)N[C@@H](CC(N)=O)C(=O)N3)NC(=O)[C@H](Cc1ccc(O)cc1)NC(=O)CNC(=O)[C@H](CO)NC2=O [CIANRNGCQPDGSQGNCCSGYCHKEPGWVAGYCR]

MIC [16]: 5.07 µM (≈ 16 µg/mL) | MIC [17]: 10.1 µM (≈ 32 µg/mL) | MIC [18]: 2.54 µM (≈ 8 µg/mL) | MIC (Staphylococcus aureus): 10.1 µM (≈ 32 µg/mL) | MIC [19]: 5.07 µM (≈ 16 µg/mL) | MIC [20]: 10.1 µM (≈ 32 µg/mL)
SMILES: CC[C@H](C)[C@H](NC(=O)[C@H](Cc1ccccc1)NC(=O)CNC(=O)CNC(=O)[C@H](CO)NC(=O)[C@H](Cc1ccccc1)NC(=O)[C@H](CCC(N)=O)NC(=O)[C@H](CCCCN)NC(=O)[C@H](CC(C)C)NC(=O)[C@H](CC(C)C)NC(=O)[C@H](CCCCN)NC(=O)[C@H](CC(C)C)NC(=O)[C@H](CC(C)C)NC(=O)[C@H](CCC(N)=O)NC(=O)[C@H](CCCCN)NC(=O)[C@H](CC(C)C)NC(=O)[C@H](CC(C)C)NC(=O)[C@H](CCC(N)=O)NC(=O)[C@@H](N)CC(C)C)C(=O)N[C@@H](CCCCN)C(=O)N[C@@H](Cc1cnc[nH]1)C(=O)N[C@@H](Cc1ccccc1)C(=O)N[C@H](C(=O)N[C@@H](Cc1cnc[nH]1)C(=O)N[C@@H](CCCN=C(N)N)C(=O)N[C@@H](Cc1ccccc1)C(N)=O)[C@@H](C)CC [LQLLKQLLKLLKQFSGGFIKHFIHRF]
